Test results: US11884682B2, “Compounds and their uses as MIF inhibitors” (NANJING IMMUNOPHAGE BIOTECH CO., LTD., priority 2020, dated 2024)

How the values were obtained:
[1] = target: MIF (Homo sapiens (Human), UniProt P14174); assay: MIF tautomerase assay using pHPP as substrate; assay type: biochemical; conditions: cell-free, pHPP substrate 1.5 mM, MIF 3 nM; mean pIC50 of multiple test results
Procedure: Tautomerase Assay Using pHPP as substrate
This assay measured MIF's tautomerase activity in a cell-free system and was based on the determination of initial rates of the MIF-catalyzed conversion of the ketonic into the enolic tautomer of pHPP. This was achieved by spectrophotometric quantification of the complex between borate and the product of the reaction (enolic pHPP). The substrate was prepared by conversion of the enolic pHPP into its ketonic form. To achieve this, 0.5 M pHPP in methanol was diluted 10-fold with 50 mM sodium acetate buffer at pH 6.0, and then the suspension was shaken for 24 h at room temperature in darkness, and finally stored at 4° C. for not more than 1 week, with 5 min sonication being recommended before use.
Assays were performed in small-volume clear-bottom black 96 or 384-well polystyrene plates (Greiner Bio-One). First, 2 μL of the enzyme solution containing 6 nM of MIF in DPBS, 0.025% w/v BSA, and 300 μM CHAPS was dispensed onto sample and negative control wells using Multidrop Combi with metallic tip cassettes (Thermo Fisher Scientific) previously treated with Sigmacote. Then, 2 μL of the same buffer without MIF was dispensed onto positive control wells. The reaction was started by addition of the following to all wells: 2 μL of substrate solution containing 3 mM ketonic pHPP in 200 mM boric acid, 25 mM sodium phosphate, 0.025% w/v BSA, and 300 μM CHAPS at pH 6.0. In order to remove bubbles, the plate was centrifuged in an Allegra 25R centrifuge (Beckman Coulter, Inc., Brea, CA) at 1000 rpm for 2 min at room temperature. Then, the plate was read in an EnVision. Final concentrations of enzyme and substrate were 3 nM and 1.5 mM, respectively. Initial rates were calculated for each well as the slope of the absorbance progress curve.
(§1) The data mentioned below represents a mean pIC50 value of multiple test results. It is understood that the data illustrated below may have reasonable variation depending on the specific conditions and procedures used by the person conducting the testing.

[2] = tested on: U251 cell; assay: U251 cell proliferation assay (CCK-8); assay type: cell-based; conditions: Homo sapiens, U-251; U251 cells; read-out: U251 Profileration pIC50 (converted)
Description: [The source words this procedure for another cell line and reports this cell line under the same test.] (§2) The assay measures the ability of a compound to inhibit cell proliferation using Cell Counting Kit-8 (CCK-8), which allows sensitive colorimetric assays for the determination of cell viability in cell proliferation and cytotoxicity assays. The highly water-soluble tetrazolium salt, WST-8, is reduced by dehydrogenase activities in cells to give a yellow-color formazan dye, which is soluble in the tissue culture media. The amount of the formazan dye, generated by the activities of dehydrogenases in cells, is directly proportional to the number of living cells.
(§3) The assay was performed based on the instruction of the manufacturer (Dojindo Molecular Technologies Inc., Rockville, MD, USA). To start the assay, BV2 cells were seeded at a density of […] into 96-well plates and treated with test compounds, which were used at a top final assay concentration of 33.3 μM, diluted in assay medium with 1:3 dilutions to produce 10 point concentration responses, for 48 h. After incubation, the CCK-8 solution (10 μl) was added to each well of the plate and the plates were incubated in incubator at 37° C. for 3 h. Absorbance was recorded three times independently using a microplate reader (Bio-Rad Laboratories, Richmond, CA, USA) at 450 nm.

[3] = tested on: BV2 cells; assay: BV2 cell proliferation assay (CCK-8); assay type: cell-based; conditions: Mus musculus, BV-2, 48 h treatment, CCK-8, top concentration 33.3 μM, mean pIC50 of multiple test results, read-out: BV2 Profileration pIC50 (converted)
Description: as §2, §3
as §1, with “Selected examples were tested in the BV2 cell proliferation. The” for “The”

MIF, sequence (P14174 2-115): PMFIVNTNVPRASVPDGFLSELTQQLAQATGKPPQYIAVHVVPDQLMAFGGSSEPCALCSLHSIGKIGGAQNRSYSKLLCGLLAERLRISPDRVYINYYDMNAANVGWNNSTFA

Row | Structure (SMILES) | Tautomerase Inhibition pIC50 [1] | IC50 [2] | IC50 [3]
1 | COc1cc(CN2CCOCC2)ccc1C(=O)NCc1nnc(-c2cccs2)o1 [Compound 86, 2-methoxy-4-(morpholinomethyl)-N-((5-(thiophen-2-yl)-1,3,4-oxadiazol-2-yl)methyl)benzamide] | 5.47 | > 1000 µM | > 1000 µM
2 | COc1cc(OCCO)ccc1C(=O)Nc1nnc(-c2cccs2)o1 [Compound 17, 4-(2-hydroxyethoxy)-2-methoxy-N-(5-(thiophen-2-yl)-1,3,4-oxadiazol-2-yl)benzamide] | 7.98 | > 1000 µM | 11.5 µM
3 | COc1cc(N2CCOCC2)ccc1C(=O)N(C)Cc1nnc(-c2cccs2)o1 [Compound 52, 2-methoxy-N-methyl-4-morpholino-N-((5-(thiophen-2-yl)-1,3,4-oxadiazol-2-yl)methyl)benzamide] | 4.20 | > 1000 µM | 3.63 µM
4 | COc1cc(N2CCOCC2)ccc1C(=O)NCc1nnc(-c2ccccc2)o1 [Compound 63, 2-methoxy-4-morpholino-N-((5-phenyl-1,3,4-oxadiazol-2-yl)methyl)benzamide] | <5 | > 1000 µM | 21.4 µM
5 | COc1cc(N2CCOCC2)ccc1NC(=O)c1nnc(-c2cccs2)o1 [Compound 75, N-(2-methoxy-4-morpholinophenyl)-5-(thiophen-2-yl)-1,3,4-oxadiazole-2-carboxamide] | <5 | > 1000 µM | 28.2 µM
6 | COc1cc(OCc2nn[nH]n2)ccc1C(=O)Nc1nnc(-c2cccs2)o1 [Compound 22, 4-((2H-tetrazol-5-yl)methoxy)-2-methoxy-N-(5-(thiophen-2-yl)-1,3,4-oxadiazol-2-yl)benzamide] | 7.91 | > 1000 µM | > 1000 µM
7 | COc1cc(CN2CCCCC2)ccc1C(=O)NCc1nnc(-c2cccs2)o1 [Compound 85, 2-methoxy-4-(piperidin-1-ylmethyl)-N-((5-(thiophen-2-yl)-1,3,4-oxadiazol-2-yl)methyl)benzamide] | 5.20 | > 1000 µM | > 1000 µM

Continued, in another order:

Row | Tautomerase Inhibition pIC50 [1] | IC50 [2] | Structure (SMILES) | IC50 [3]
8 | 6.29 | > 1000 µM | COc1cc(N2CCOCC2)ccc1C(=O)NCc1nnc(-c2cccs2)o1 [Compound 51, 2-methoxy-4-morpholino-N-((5-(thiophen-2-yl)-1,3,4-oxadiazol-2-yl)methyl)benzamide] | 13.2 µM
9 | 6.13 | > 1000 µM | COc1cc(N2CCCCC2)ccc1C(=O)NCc1nnc(-c2cccs2)o1 [Compound 56, 2-methoxy-4-(piperidin-1-yl)-N-((5-(thiophen-2-yl)-1,3,4-oxadiazol-2-yl)methyl)benzamide] | 16.2 µM
10 | <5 | > 1000 µM | O=C(NCc1nnc(-c2cccs2)o1)c1ccccc1F [Compound 44, 2-fluoro-N-((5-(thiophen-2-yl)-1,3,4-oxadiazol-2-yl)methyl)benzamide] | 45.7 µM
11 | 1.77 | > 1000 µM | COc1cc(NC2CCN(C)C2)ccc1C(=O)NCc1nnc(-c2cccs2)o1 (stereo not drawn) [Compound 76, 2-methoxy-4-((1-methylpyrrolidin-3-yl)amino)-N-((5-(thiophen-2-yl)-1,3,4-oxadiazol-2-yl)methyl)benzamide] | > 1000 µM
